Results reported in PubChem BioAssay (NCI).
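Grown in 96-well plates, cells were treated for 48 hours with each compound at five concentrations. Insufficient inhibition: endpoint recorded as highest concentration tested. The concentration for 50% growth inhibition is given as GI50. TGI is the concentration that stops growth completely.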

Columns and labels:
Assay in all cases: growth of human tumour cells (NCI), 48 h
SK-MEL-28 melanoma = tested on: SK-MEL-28 melanoma
RPMI-8226 leukemia = tested on: RPMI-8226 leukemia
SW-620 colon = tested on: SW-620 colon
NCI/ADR-RES ovarian = tested on: NCI/ADR-RES ovarian
NCI-H226 lung = tested on: NCI-H226 lung
UACC-62 melanoma = tested on: UACC-62 melanoma
HOP-92 NSCLC = tested on: HOP-92 NSCLC
T-47D breast = tested on: T-47D breast
NCI-H23 lung = tested on: NCI-H23 lung
HCT-15 colon = tested on: HCT-15 colon
IGROV1 ovarian = tested on: IGROV1 ovarian
DU-145 prostate = tested on: DU-145 prostate
U251 CNS = tested on: U251 CNS
SF-539 CNS = tested on: SF-539 CNS
CAKI-1 renal = tested on: CAKI-1 renal
HS 578T breast = tested on: HS 578T breast
786-0 renal = tested on: 786-0 renal
SNB-19 CNS = tested on: SNB-19 CNS
HL-60(TB) leukemia = tested on: HL-60(TB) leukemia
UO-31 renal = tested on: UO-31 renal
SF-268 CNS = tested on: SF-268 CNS
SR leukemia = tested on: SR leukemia
OVCAR-3 ovarian = tested on: OVCAR-3 ovarian
MDA-MB-435 = tested on: MDA-MB-435
ACHN renal = tested on: ACHN renal
SK-OV-3 ovarian = tested on: SK-OV-3 ovarian
LOX IMVI melanoma = tested on: LOX IMVI melanoma
HT29 colon = tested on: HT29 colon
OVCAR-8 ovarian = tested on: OVCAR-8 ovarian
UACC-257 melanoma = tested on: UACC-257 melanoma
SK-MEL-5 melanoma = tested on: SK-MEL-5 melanoma
TK-10 renal = tested on: TK-10 renal
SN12C renal = tested on: SN12C renal
PC-3 prostate = tested on: PC-3 prostate
OVCAR-4 ovarian = tested on: OVCAR-4 ovarian
K-562 leukemia = tested on: K-562 leukemia
MALME-3M melanoma = tested on: MALME-3M melanoma
MDA-MB-231 breast = tested on: MDA-MB-231 breast
MOLT-4 leukemia = tested on: MOLT-4 leukemia
HCT-116 colon = tested on: HCT-116 colon
HOP-62 NSCLC = tested on: HOP-62 NSCLC
MCF7 breast = tested on: MCF7 breast
A498 renal = tested on: A498 renal
NCI-H460 lung = tested on: NCI-H460 lung
OVCAR-5 ovarian = tested on: OVCAR-5 ovarian
SNB-75 CNS = tested on: SNB-75 CNS
CCRF-CEM leukemia = tested on: CCRF-CEM leukemia
EKVX NSCLC = tested on: EKVX NSCLC
A549 NSCLC = tested on: A549 NSCLC
HCC-2998 colon = tested on: HCC-2998 colon
SF-295 CNS = tested on: SF-295 CNS
KM12 colon = tested on: KM12 colon
SK-MEL-2 melanoma = tested on: SK-MEL-2 melanoma
COLO 205 colon = tested on: COLO 205 colon
BT-549 breast = tested on: BT-549 breast

O=c1c2c3c(sc2n2c(-c4ccc(Br)cc4)nnc2n1Cc1ccccc1)CCCC3
GI50 (SK-MEL-28 melanoma): 6.19 µM
TGI (SK-MEL-28 melanoma): 19.9 µM
GI50 (RPMI-8226 leukemia): 3.85 µM
TGI (RPMI-8226 leukemia): 25.4 µM
GI50 (SW-620 colon): 13.1 µM
TGI (SW-620 colon): 26.3 µM
GI50 (NCI/ADR-RES ovarian): 12.8 µM
TGI (NCI/ADR-RES ovarian): 36 µM
GI50 (NCI-H226 lung): 7.32 µM
TGI (NCI-H226 lung): 20.3 µM
GI50 (UACC-62 melanoma): 4.39 µM
TGI (UACC-62 melanoma): 17.2 µM
GI50 (HOP-92 NSCLC): 3.41 µM
TGI (HOP-92 NSCLC): 16.1 µM
GI50 (T-47D breast): 4.42 µM
TGI (T-47D breast): 16.8 µM
GI50 (NCI-H23 lung): 12.4 µM
TGI (NCI-H23 lung): 31.3 µM
GI50 (HCT-15 colon): 4.39 µM
TGI (HCT-15 colon): 17.8 µM
GI50 (IGROV1 ovarian): 11.7 µM
TGI (IGROV1 ovarian): 26.9 µM
GI50 (DU-145 prostate): 9.72 µM
TGI (DU-145 prostate): 22.9 µM
GI50 (U251 CNS): 6.89 µM
TGI (U251 CNS): 19.7 µM
GI50 (SF-539 CNS): 11.9 µM
TGI (SF-539 CNS): 32.3 µM
GI50 (CAKI-1 renal): 6.02 µM
TGI (CAKI-1 renal): 22.4 µM
GI50 (HS 578T breast): 11.9 µM
TGI (HS 578T breast): 36.6 µM
GI50 (786-0 renal): 3.96 µM
TGI (786-0 renal): 14.6 µM
GI50 (SNB-19 CNS): 8.12 µM
TGI (SNB-19 CNS): 20.7 µM
GI50 (HL-60(TB) leukemia): 14.1 µM
TGI (HL-60(TB) leukemia): 77.5 µM
GI50 (UO-31 renal): 11.3 µM
TGI (UO-31 renal): 41.1 µM
GI50 (SF-268 CNS): 7.44 µM
TGI (SF-268 CNS): 21.1 µM
GI50 (SR leukemia): 4.76 µM
TGI (SR leukemia): 23.6 µM
GI50 (OVCAR-3 ovarian): 6.24 µM
TGI (OVCAR-3 ovarian): 20 µM
GI50 (MDA-MB-435): 14.2 µM
TGI (MDA-MB-435): 35.3 µM
GI50 (ACHN renal): 8.74 µM
TGI (ACHN renal): 21.1 µM
GI50 (SK-OV-3 ovarian): 5.88 µM
TGI (SK-OV-3 ovarian): 18.8 µM
GI50 (LOX IMVI melanoma): 10.5 µM
TGI (LOX IMVI melanoma): 22.3 µM
GI50 (HT29 colon): 20.6 µM
TGI (HT29 colon): 58.7 µM
GI50 (OVCAR-8 ovarian): 15.5 µM
TGI (OVCAR-8 ovarian): 37 µM
TGI (UACC-257 melanoma): 11.9 µM
GI50 (SK-MEL-5 melanoma): 3.8 µM
TGI (SK-MEL-5 melanoma): 14.3 µM
GI50 (TK-10 renal): 7.94 µM
TGI (TK-10 renal): 21.8 µM
GI50 (SN12C renal): 8.01 µM
TGI (SN12C renal): 23.4 µM
GI50 (PC-3 prostate): 2.97 µM
TGI (PC-3 prostate): 16.6 µM
GI50 (OVCAR-4 ovarian): 6.03 µM
TGI (OVCAR-4 ovarian): 22.4 µM
GI50 (K-562 leukemia): 23.8 µM
TGI (K-562 leukemia): > 100 µM
GI50 (MALME-3M melanoma): 3.19 µM
TGI (MALME-3M melanoma): 19.5 µM
GI50 (MDA-MB-231 breast): 3.39 µM
TGI (MDA-MB-231 breast): 16.6 µM
GI50 (MOLT-4 leukemia): 3.84 µM
TGI (MOLT-4 leukemia): 91.6 µM
GI50 (HCT-116 colon): 9.56 µM
TGI (HCT-116 colon): 22.7 µM
GI50 (HOP-62 NSCLC): 3.97 µM
TGI (HOP-62 NSCLC): 17.6 µM
GI50 (MCF7 breast): 10.6 µM
TGI (MCF7 breast): 23.2 µM
GI50 (A498 renal): 10.9 µM
TGI (A498 renal): 22.9 µM
GI50 (NCI-H460 lung): 10.2 µM
TGI (NCI-H460 lung): 22.3 µM
GI50 (OVCAR-5 ovarian): 9.1 µM
TGI (OVCAR-5 ovarian): 24.8 µM
GI50 (SNB-75 CNS): 7.99 µM
TGI (SNB-75 CNS): 22.1 µM
GI50 (CCRF-CEM leukemia): 2.98 µM
TGI (CCRF-CEM leukemia): 29.2 µM
GI50 (EKVX NSCLC): 10.6 µM
TGI (EKVX NSCLC): 23.4 µM
GI50 (A549 NSCLC): 12.4 µM
TGI (A549 NSCLC): 24.8 µM
GI50 (HCC-2998 colon): 3.25 µM
TGI (HCC-2998 colon): 13.4 µM
GI50 (SF-295 CNS): 2.42 µM
TGI (SF-295 CNS): 7.51 µM
GI50 (KM12 colon): 10.2 µM
TGI (KM12 colon): 24.7 µM
GI50 (SK-MEL-2 melanoma): 8.58 µM
TGI (SK-MEL-2 melanoma): 21.2 µM
GI50 (COLO 205 colon): 8.24 µM
TGI (COLO 205 colon): 22.8 µM
GI50 (BT-549 breast): 6.04 µM
TGI (BT-549 breast): 19.8 µM
